B1: α-ketoglutarate-semialdehyde dehydrogenase from Azospirillum basilensis (AbKGSADH) (enzyme, UniProt Q1JUP4 1-481, looked up)
chain: MANVTYTDTQLLIDGEWVDAASGKTIDVVNPATGKPIGRVAHAGIADLDRALAAAQSGFEAWRKVPAHERAATMRKAAALVRERADAIAQLMTQEQGKPLTEARVEVLSAADIIEWFADEGRRVYGRIVPPRNLGAQQTVVKEPVGPVAAFTPWNFPVNQVVRKLSAALATGCSFLVKAPEETPASPAALLRAFVDAGVPAGVIGLVYGDPAEISSYLIPHPVIRKVTFTGSTPVGKQLASLAGLHMKRATMELGGHAPVIVAEDADVALAVKAAGGAKFRNAGQVCISPTRFLVHNSIRDEFTRALVKHAEGLKVGNGLEEGTTLGALANPRRLTAMASVIDNARKVGASIETGGERIGSEGNFFAPTVIANVPLDADVFNNEPFGPVAAIRGFDKLEEAIAEANRLPFGLAGYAFTRSFANVHLLTQRLEVGMLWINQPATPWPEMPFGGVKDSGYGSEGGPEALEPYLVTKSVTVMAV
notes: α-ketoglutarate-semialdehyde dehydrogenase (KGSADH) of the alternative L-arabinose pathway, Azospirillum brasilense; the limits Met1 and Val481 are those of the domains told for the crystal structure; The vector adds a 6xHis tag and an rTEV protease site at the N-terminus; no cleavage step is described; also called aldehyde dehydrogenase from Azospirillum brasilense; 3-HP producing ALDH; source: …

Experiments:
[1] = target: T1, AbKGSADH (α-ketoglutarate-semialdehyde dehydrogenase) (Azospirillum brasilense, UniProt Q1JUP4); assay: X-ray crystal structure, […] Å in Table […] ([…] Å in text); settings: NAD-binding site between N- and C-terminal domains
T1 construct: gene araE; Met1-Val481 modelled; tetramer about 200 kDa

[2] = target: the molecule itself; assay: crystal structure; apo-form and complex with NAD+; space group P4(3)22, two molecules in the asymmetric unit, tetramer generated by crystallographic two-fold symmetry; crystals from 16% PEG 3350, 0.1 M sodium cacodylate pH 6.5, 0.2 M MgCl2, 295 K

Row | Molecule | X-ray crystal structure, 2.30 Å in Table 1 (2.6 Å in text) [1] | stoichiometry N [2]
1 | NC(=O)c1ccc[n+]([C@@H]2O[C@H](COP(=O)(O)OP(=O)(O)OC[C@H]3O[C@@H](n4cnc5c(N)ncnc54)[C@H](O)[C@@H]3O)[C@@H](O)[C@H]2O)c1 [NAD^+] | determined the crystal structure of the protein in complex with NAD^+ | –
2 | B1 | – | 4

From paper PMC5385487, “Structural insights into the production of 3-hydroxypropionic acid by aldehyde dehydrogenase from Azospirillum brasilense” (Scientific Reports, 2017)
